From patent US9771341B2, “Piperazine carbamates and methods of making and using same” (Abide Therapeutics, Inc., priority 2015, dated 2017)

Assays:
[1] = molecular target: T1, FAAH (Mus musculus, UniProt O08914); assay: In vitro competitive activity-based protein profiling (mouse), FAAH; assay type: biochemical; settings: for inhibition at 1 µM: mouse proteome, in vitro; for IC50: mouse brain membrane fraction or cell lysates, 30 min preincubation at 37° C, FP-Rh probe
T1 construct: Proteomes (mouse brain membrane fraction or cell lysates); from tissue; host or cells: mouse brain membrane fraction (or unspecified cell lysates)
T1 sequence (O08914 1-579): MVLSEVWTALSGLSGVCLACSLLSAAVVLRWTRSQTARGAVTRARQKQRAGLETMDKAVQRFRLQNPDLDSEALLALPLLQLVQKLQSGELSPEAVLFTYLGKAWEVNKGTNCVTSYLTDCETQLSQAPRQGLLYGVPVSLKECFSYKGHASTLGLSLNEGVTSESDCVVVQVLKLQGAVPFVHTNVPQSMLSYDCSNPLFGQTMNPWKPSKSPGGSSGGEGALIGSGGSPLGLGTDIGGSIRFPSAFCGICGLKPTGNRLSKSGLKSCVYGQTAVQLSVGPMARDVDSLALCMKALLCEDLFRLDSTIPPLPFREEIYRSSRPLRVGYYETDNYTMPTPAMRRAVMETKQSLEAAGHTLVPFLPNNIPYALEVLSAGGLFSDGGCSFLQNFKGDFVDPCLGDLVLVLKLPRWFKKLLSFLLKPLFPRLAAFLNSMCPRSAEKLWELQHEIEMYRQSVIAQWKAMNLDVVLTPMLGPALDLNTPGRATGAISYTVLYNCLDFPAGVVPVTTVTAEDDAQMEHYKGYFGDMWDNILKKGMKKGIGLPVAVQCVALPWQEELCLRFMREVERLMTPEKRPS
Summary of the method: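 Mouse brain membrane fraction or cell lysates (1.0 mg/mL protein) preincubated with inhibitors 30 min at 37° C, then FP-Rh probe 30 min at 37° C. SDS-PAGE fluorescence band intensity gave FAAH activity.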

[2] = molecular target: T1, FAAH; assay: Mouse brain proteomes from inhibitor treated mice, FAAH; assay type: in vivo; settings: 5 mg/kg oral gavage, C57Bl/6J mice, brain proteome 4 h after administration
Description: Preparation of Mouse Brain Proteomes from Inhibitor Treated Mice.
Inhibitors were administered to wild-type C57Bl/6J by oral gavage in a vehicle of polyethylene glycol. Each animal was sacrificed 4 h following administration and brain proteomes were prepared and analyzed according to previously established methods (See Niphakis, M. J., et al. (2011) ACS Chem. Neurosci. and Long, J. Z., et al. Nat. Chem. Biol. 5:37-44)

[3] = molecular target: T2, ABHD6 (Mus musculus, UniProt Q8R2Y0); assay: In vitro competitive activity-based protein profiling (mouse), ABHD6; assay type: biochemical; settings: for inhibition at 1 µM: mouse proteome, in vitro, read-out: % Inhibition at 1 μM ABHD6; for IC50: mouse brain membrane fraction or cell lysates, 30 min preincubation at 37° C, FP-Rh probe
T2 construct: Proteomes (mouse brain membrane fraction or cell lysates); from tissue; host or cells: mouse brain membrane fraction (or unspecified cell lysates)
T2 sequence (Q8R2Y0 1-336): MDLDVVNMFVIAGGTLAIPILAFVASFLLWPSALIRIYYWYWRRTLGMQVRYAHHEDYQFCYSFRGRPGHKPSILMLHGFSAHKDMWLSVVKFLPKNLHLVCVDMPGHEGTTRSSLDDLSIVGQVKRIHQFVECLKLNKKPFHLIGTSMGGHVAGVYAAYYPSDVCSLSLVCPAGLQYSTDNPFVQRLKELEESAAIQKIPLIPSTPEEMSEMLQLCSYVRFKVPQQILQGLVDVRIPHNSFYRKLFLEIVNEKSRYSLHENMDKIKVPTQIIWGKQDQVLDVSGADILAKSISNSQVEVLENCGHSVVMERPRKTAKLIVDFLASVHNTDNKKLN
Description: (§1) In Vitro Competitive Activity-Based Protein Profiling (Mouse).
(§2) Proteomes (mouse brain membrane fraction or cell lysates) (50 μL, 1.0 mg/mL total protein concentration) were preincubated with varying concentrations of inhibitors at 37° C. After 30 min, FP-Rh (1.0 μL, 50 μM in DMSO) was added and the mixture was incubated for another 30 min at 37° C. Reactions were quenched with SDS loading buffer (50 μL-4×) and run on SDS-PAGE.

[4] = molecular target: T3, MAGL (Mus musculus, UniProt O35678); assay: In vitro competitive activity-based protein profiling (mouse), MAGL; assay type: biochemical; settings: for inhibition at 1 µM: mouse proteome, in vitro, read-out: % Inhibition at 1 μM MAGL; for IC50: mouse brain membrane fraction or cell lysates, 30 min preincubation at 37° C, FP-Rh probe
T3 construct: Proteomes (mouse brain membrane fraction or cell lysates); from tissue; host or cells: mouse brain membrane fraction (or unspecified cell lysates)
T3 sequence (O35678 1-303): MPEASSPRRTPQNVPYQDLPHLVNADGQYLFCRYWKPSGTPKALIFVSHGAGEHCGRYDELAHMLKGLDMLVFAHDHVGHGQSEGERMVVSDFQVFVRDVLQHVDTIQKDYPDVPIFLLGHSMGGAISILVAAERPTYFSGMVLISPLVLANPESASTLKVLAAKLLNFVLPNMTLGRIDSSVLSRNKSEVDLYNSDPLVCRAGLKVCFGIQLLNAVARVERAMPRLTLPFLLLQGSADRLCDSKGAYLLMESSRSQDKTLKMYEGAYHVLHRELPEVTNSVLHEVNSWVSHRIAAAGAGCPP
Description: as §1, §2

Compound	inhibition at 1 µM [1] [%]	IC50 [1] [nM]	inhibition at 5 mg/kg [2] [%]	inhibition at 1 µM [3] [%]	IC50 [3] [nM]	inhibition at 1 µM [4] [%]	IC50 [4] [nM]
O=C(OC(C(F)(F)F)C(F)(F)F)N1CCN(Cc2ccc(C(F)(F)F)cc2N2CC3CCC(C2)O3)CC1 [Example 59, 1,1,1,3,3,3-hexafluoropropan-2-yl 4-(2-(8-oxa-3-azabicyclo[3.2.1]octan-3-yl)-4-(trifluoromethyl)benzyl)piperazine-1-carboxylate]	< 25	> 1000	< 25				
O=C(OC(C(F)(F)F)C(F)(F)F)N1CCN(Cc2ccc(Cl)cc2N2CC3CCC(C2)O3)CC1 [Example 30, 1,1,1,3,3,3-hexafluoropropan-2-yl 4-(2-(8-oxa-3-azabicyclo[3.2.1]octan-3-yl)-4-chlorobenzyl)piperazine-1-carboxylate]		> 1000	< 25				
O=C(OC(C(F)(F)F)C(F)(F)F)N1CCN(Cc2ccc(Cl)cc2N2CC[C@H](N3CCCS3(=O)=O)C2)CC1 [Example 46, 1,1,1,3,3,3-hexafluoropropan-2-yl (S)-4-(4-chloro-2-(3-(1,1-dioxidoisothiazolidin-2-yl)pyrrolidin-1-yl)benzyl)piperazine-1-carboxylate]	25 to 75	> 1000		25 to 75	> 1000	> 75	< 100
O=C(OC(C(F)(F)F)C(F)(F)F)N1CCN(Cc2ccc(C(F)(F)F)c(N3CCC(CO)C3)c2)CC1 (centres unmarked) [Example 81, 1,1,1,3,3,3-hexafluoropropan-2-yl 4-(3-(3-(hydroxymethyl)pyrrolidin-1-yl)-4-(trifluoromethyl)benzyl)piperazine-1-carboxylate]	< 25	> 1000		> 75	100 to 1000	> 75	100 to 1000
CCOC(=O)C1CCCN1c1cc(C(F)(F)F)ccc1CN1CCN(C(=O)OC(C(F)(F)F)C(F)(F)F)CC1 (centres unmarked) [Example 70, 1,1,1,3,3,3-hexafluoropropan-2-yl 4-(2-(2-(ethoxycarbonyl)pyrrolidin-1-yl)-4-(trifluoromethyl)benzyl)piperazine-1-carboxylate]	< 25	> 1000		> 75	100 to 1000	> 75	< 100
O=C(O)C1CCN(c2cc(CN3CCN(C(=O)OC(C(F)(F)F)C(F)(F)F)CC3)cc(C(F)(F)F)c2)CC1 [Example 94, 1-(3-((4-(((1,1,1,3,3,3-hexafluoropropan-2-yl)oxy)carbonyl)piperazin-1-yl)methyl)-5-(trifluoromethyl)phenyl)piperidine-4-carboxylic acid]	< 25	> 1000		> 75	< 100	25 to 75	100 to 1000
O=C(OC(C(F)(F)F)C(F)(F)F)N1CCN(Cc2ccc(CN3CCCCC3)cc2OC(F)(F)F)CC1 [Example 24, 1,1,1,3,3,3-hexafluoropropan-2-yl 4-(4-(piperidin-1-ylmethyl)-2-(trifluoromethoxy)benzyl)piperazine-1-carboxylate]	< 25	> 1000		< 25	> 1000	> 75	100 to 1000
CC(=O)N[C@H]1CCN(Cc2cccc(CN3CCN(C(=O)OC(C(F)(F)F)C(F)(F)F)CC3)c2C)C1 [Example 18, 1,1,1,3,3,3-hexafluoropropan-2-yl (S)-4-(3-((3-acetamidopyrrolidin-1-yl)methyl)-2-methylbenzyl)piperazine-1-carboxylate]	< 25	> 1000		> 75	100 to 1000	> 75	100 to 1000
COC(=O)c1cc(CN2CCN(C(=O)OC(C(F)(F)F)C(F)(F)F)CC2)ccc1N1CCOCC1 [Example 5, 1,1,1,3,3,3-hexafluoropropan-2-yl 4-(3-(methoxycarbonyl)-4-morpholinobenzyl)piperazine-1-carboxylate]		> 1000			100 to 1000		< 100
Cc1c(CN2CCN(C(=O)OC(C(F)(F)F)C(F)(F)F)CC2)cccc1CN1CCCC[C@@H]1C [Example 20, 1,1,1,3,3,3-hexafluoropropan-2-yl (S)-4-(2-methyl-3-((2-methylpiperidin-1-yl)methyl)benzyl)piperazine-1-carboxylate]	< 25	> 1000		> 75	100 to 1000	> 75	100 to 1000
C#CCO[C@@H]1CCN(c2cc(C(F)(F)F)ccc2CN2CCN(C(=O)OC(C(F)(F)F)C(F)(F)F)CC2)C1 [Example 2, 1,1,1,3,3,3-hexafluoropropan-2-yl (R)-4-(2-(3-(prop-2-yn-1-yloxy)pyrrolidin-1-yl)-4-(trifluoromethyl)benzyl)piperazine-1-carboxylate]		> 1000			> 1000		< 100
Cc1c(CN2CCN(C(=O)OC(C(F)(F)F)C(F)(F)F)CC2)cccc1CN1CCCC[C@H]1C [Example 19, 1,1,1,3,3,3-hexafluoropropan-2-yl (R)-4-(2-methyl-3-((2-methylpiperidin-1-yl)methyl)benzyl)piperazine-1-carboxylate]	< 25	> 1000		> 75	100 to 1000	> 75	100 to 1000
Cc1c(CN2CCOCC2)cccc1CN1CCN(C(=O)OC(C(F)(F)F)C(F)(F)F)CC1 [Example 21, 1,1,1,3,3,3-hexafluoropropan-2-yl 4-(2-methyl-3-(morpholinomethyl)benzyl)piperazine-1-carboxylate]	< 25	> 1000		> 75	100 to 1000	> 75	100 to 1000
O=C(OC(C(F)(F)F)C(F)(F)F)N1CCN(Cc2cc(N3CCCC3CO)cc(C(F)(F)F)c2)CC1 (centres unmarked) [Example 88, 1,1,1,3,3,3-hexafluoropropan-2-yl 4-(3-(2-(hydroxymethyl)pyrrolidin-1-yl)-5-(trifluoromethyl)benzyl)piperazine-1-carboxylate]	< 25	> 1000		25 to 75	100 to 1000	> 75	100 to 1000
O=C(O)C1CCN(c2cc(C(F)(F)F)ccc2CN2CCN(C(=O)OC(C(F)(F)F)C(F)(F)F)CC2)C1 (centres unmarked) [Example 72, 1-(2-((4-(((1,1,1,3,3,3-hexafluoropropan-2-yl)oxy)carbonyl)piperazin-1-yl)methyl)-5-(trifluoromethyl)phenyl)pyrrolidine-3-carboxylic acid]	< 25	> 1000		> 75	100 to 1000	> 75	< 100
O=C(OC(C(F)(F)F)C(F)(F)F)N1CCN(Cc2ccc(N3CC4CCC(C3)O4)cc2F)CC1 [Example 27, 1,1,1,3,3,3-hexafluoropropan-2-yl 4-(4-(8-oxa-3-azabicyclo[3.2.1]octan-3-yl)-2-fluorobenzyl)piperazine-1-carboxylate]	< 25	> 1000		25 to 75	100 to 1000	> 75	< 100
